Measurements as given in patent US6667025B2 (Mitsubishi Pharma Corporation, priority 1997, dated 2003).

Columns and labels:
[1] = tested on: circulating lymphocytes; assay: Circulating lymphocytes in peripheral blood of monkeys; type: in vivo, monkey; conditions: oral
Description: (§1) In dogs and monkeys, as well as rats, oral administration with FTY720 also decreases the number of circulating lymphocytes in peripheral blood. The reduction of the number of T cells was especially remarkable. Withdrawal of FTY720 treatment recovered the number of lymphocytes in peripheral blood to the normal level within 2 weeks.

[2] = tested on: renal allograft, mongrel donors and beagle recipients; assay: Canine renal allograft survival; type: in vivo; conditions: 5 mg/kg
Procedure: Kidneys from mongrel donor dogs were transplanted into beagle dogs in the right iliac fossa, and the recipient dogs were then nephrectomized bilaterally. Levels of serum creatine and blood urea nitrogen were measured to monitor survival. Graft rejection was defined as the day when either serum creatine levels increased to more than 10.0 mg/dL or blood urea nitrogen levels elevated to more than 200 mg/dL. […] The survival curves are illustrated in FIG. 6.

[3] = tested on: IL-2 production; conditions: same concentration range (up to 1000 nM); cited from earlier work
[4] = tested on: T cell region of spleen; assay: T cell region of spleen in vivo
[5] = tested on: IL-2 mRNA in alloantigen-stimulated splenic T cells; assay: IL-2 mRNA expression in allogeneic mixed lymphocyte culture (PCR); type: cell-based, rat; conditions: 48 hours
Procedure: The housekeeping gene HPRT was used as an internal control in order to compare levels of IL-2 mRNA levels relative to the HPRT mRNA levels, as detailed below.
Allogeneic mixed lymphocyte culture was carried out by using nylon-nonadherent spleen cells of F344 rat (RT1^1v1) as responder cells and the spleen cells of WKAH rat (RT1^k) pretreated with 40 μg/ml of mitomycin C for 30 min as stimulator cells. […] After culturing for 48 hours, the cells were recovered by centrifugation. The expression of IL-2 mRNA in the cells was determined by a polymerase chain reaction (PCR) method.
Total RNA was reverse transcribed in […] of buffer solution containing 10 mmol/L Tris-HCl (pH 8.3),50 mM KCl, 5 mM MgCl2, 1 mM each dNTP (dATP, dGTP, dTTP and dCTP), 60 U RNase inhibitor (Takara Ltd. Tokyo, Japan), 15 U avian myelobalastosis virus reverse transcriptase (Takara Ltd.) and 150 pmol random 9-mers at 30° C. for 10 min and 42° C. for 30 min. Primer sequences for IL-2 and hypoxanthine-guanine phosphoribosyltransferase (HPRT) were taken from the previous report (44).
The length in base pairs of the PCR products of IL-2 and HPRT are 351 and 608 bp respectively. […] Fluorescence intensity of the specific bands was visualized by fluorescence image analyzer (FLUOR IMAGER 575®, Molecular Dynamics).

[6] = tested on: rat HEV cell lines; assay: Adhesion of rat lymphocytes to HEV cells in vitro; type: cell-based
Procedure: After the labeling with calcein-AM, the lymphocytes were washed three times with ice-cold RPMI 1640 medium. […] After incubation, the plates were turned upside down and kept for 30 min to remove HEV-nonadherent cells. Calcein pre-labeled lymphocytes adhered to HEV monolayer were lysed by adding distilled water containing 1% nonidet P-40 and the developed fluorescence was measured at 485/530 nm with fluorescence microplate reader (CytoFluor 2350).

[7] = tested on: CD3-positive T cells and CD45RA or A/B-positive B cells; assay: Lymphocyte contents of blood and lymphoid tissues by two color flow cytometry; type: in vivo, rat
Procedure: The lymphocyte contents of peripheral blood and spleen in FTY720-treated intact or allografted rats were analyzed by two color flow cytometry using anti-rat CD3 and anti-rat CD45RA or A/B monoclonal antibodies (21). Lymphocytes were stained with FITC-conjugated anti-CD3 (clone: 1F4, Caltag Laboratories, South San Fransisco, Calif.) (45) and phycoerythrin-conjugated anti-CD45RA or A/B (clone:OX-33, Pharmingen, La Jolla, Calif.) (46) monoclonal antibodies. The T cell and B cell contents were determined by two-color flow cytometry analysis using a flow cytometer (EPICS-XL; Coulter Co.).
as §1

Structure (SMILES): CCCCCCCCc1ccc(CCC(N)(CO)CO)cc1.Cl [FTY720, 2-amino-2[2-(4-octylphenyl)ethyl]propane-1,3-diol hydrochloride]
- number of circulating lymphocytes in peripheral blood [1]: decreases
- MST of renal allograft [2]: 12.0 days
- production of IL-2 [3]: did not inhibit
- effect on T cell region of spleen [4]: atrophy
- concentration that inhibited IL-2 mRNA expression [5]: > 1000 nM
- Fluorescence intensity at 485/530, mean ± SE (n = 6) ([6]; Experiment 1, HEV cells pretreated 3 hours with 1 nmol/L): 1215.7 ± 191.2
- Fluorescence intensity at 485/530, mean ± SE (n = 6) ([6]; Experiment 1, HEV cells pretreated 3 hours with 10 nmol/L): 2926.0 ± 196.4
- Fluorescence intensity at 485/530, mean ± SE (n = 6) ([6]; Experiment 1, HEV cells pretreated 3 hours with 100 nmol/L): 2510.2 ± 118.8
- Fluorescence intensity at 485/530, mean ± SE (n = 6) ([6]; Experiment 2, lymphocytes pretreated 3 hours with 100 nmol/L): 1945.7 ± 5.2
- Fluorescence intensity at 485/530, mean ± SE (n = 6) ([6]; FTY720 1 nmol/L present): 2059.2 ± 112.6
- Fluorescence intensity at 485/530, mean ± SE (n = 6) ([6]; FTY720 10 nmol/L present): 2107.2 ± 106.5
- Fluorescence intensity at 485/530, mean ± SE (n = 6) ([6]; FTY720 100 nmol/L present): 2252.0 ± 70.8
- Fluorescence intensity at 485/530, mean ± SE (n = 6) ([6]; FTY720 1000 nmol/L present): 2383.2 ± 115.2
- concentration that enhanced adhesion of calcein-prelabeled lymphocytes to HEV ([6]; in vitro, 120 min): ≥ 1 nmol/L
- number of bone marrow cells, thymocytes, polymorphonuclear cells ([7]; data not shown): did not effect
- number of T cells and B cells in spleen, thoracic duct, peripheral blood ([7]; oral 1 mg/kg): decrease
- numbers of T cells and B cells in mesenteric and peripheral lymph nodes ([7]; oral 1 mg/kg): significantly increased
- time to recovery of peripheral blood lymphocytes to normal level after withdrawal ([7]; withdrawal of FTY720 treatment): ≤ 2 weeks
- numbers of T cells and B cells in peripheral blood ([7]; within 6 hours after oral 0.1 to 10 mg/kg): dramatically decreased
